Literature values as cited in US20250331549A1, “AEROSOL-GENERATING ARTICLE WITH AVERSIVE AGENT” (PHILIP MORRIS PRODUCTS S.A., priority 2022, published 2025).
Structures can show the parent of a compound that is named as a salt. Where two headings read alike, the source gives them in different places.

[1] = quinine hydrochloride value is the set reference, denatonium benzoate value is estimated
[2] = reciprocal of the dilution that still has a bitter taste, known bittering agents, Table 1

Compound | Bitterness value [1] | Bitterness value [2]
CC[N+](CC)(CC(=O)Nc1c(C)cccc1C)Cc1ccccc1 [Denatonium benzoate, denatonium benzoate] | over 100,000,000 | >100,000,000
C[C@@]12C[C@@H](c3ccoc3)OC(=O)[C@@H]1CC[C@]1(C)[C@H]2[C@@H]2C=C[C@@]1(O)C(=O)O2 [Columbin, columbin] | – | 60,000,000
amarogentin | – | 58,000,000
C=C[C@H]1C[N@@]2CC[C@H]1C[C@H]2[C@H](O)c1ccnc2ccc(OC)cc12 [Quinine hydrochloride, quinine hydrochloride, reference compound] | 200,000 | 200,000
CC1=C[C@H]2[C@H]3[C@H](C(C)=C4[C@H]5OC(=O)[C@@H](C)[C@@H]5CC[C@](C)(O)[C@@H]43)[C@@]13[C@@H]2[C@@](C)(O)CC[C@H]1[C@H](C)C(=O)O[C@@H]13 [Absinthin, absinthin] | – | 3,000,000
COC1=C[C@@H](C)[C@@H]2C[C@H]3OC(=O)C[C@H]4C(C)=C(OC)C(=O)[C@H]([C@@]2(C)C1=O)[C@@]34C [Quassin, quassin] | – | 13,000,000
